Assay results as given in patent US20230139171A1 (SITA Information Networking Computing UK Limited, priority 2019, published 2023).
pIC50: −log10 of the molar value.

What was measured:
Type in all cases: cell-based
human TLR8 = molecular target: T1, human TLR8 (Homo sapiens, UniProt Q9NR97); assay: TLR8 inhibition reporter assay (HEK-Blue cells, SEAP reporter, R848 stimulation); conditions: HEK-Blue cells overexpressing human TLR8, SEAP reporter, R848 15.9 μM; read-out: TLR8 IC50
T1 construct: host or cells: HEK-Blue cells
T1 sequence (Q9NR97 27-1041): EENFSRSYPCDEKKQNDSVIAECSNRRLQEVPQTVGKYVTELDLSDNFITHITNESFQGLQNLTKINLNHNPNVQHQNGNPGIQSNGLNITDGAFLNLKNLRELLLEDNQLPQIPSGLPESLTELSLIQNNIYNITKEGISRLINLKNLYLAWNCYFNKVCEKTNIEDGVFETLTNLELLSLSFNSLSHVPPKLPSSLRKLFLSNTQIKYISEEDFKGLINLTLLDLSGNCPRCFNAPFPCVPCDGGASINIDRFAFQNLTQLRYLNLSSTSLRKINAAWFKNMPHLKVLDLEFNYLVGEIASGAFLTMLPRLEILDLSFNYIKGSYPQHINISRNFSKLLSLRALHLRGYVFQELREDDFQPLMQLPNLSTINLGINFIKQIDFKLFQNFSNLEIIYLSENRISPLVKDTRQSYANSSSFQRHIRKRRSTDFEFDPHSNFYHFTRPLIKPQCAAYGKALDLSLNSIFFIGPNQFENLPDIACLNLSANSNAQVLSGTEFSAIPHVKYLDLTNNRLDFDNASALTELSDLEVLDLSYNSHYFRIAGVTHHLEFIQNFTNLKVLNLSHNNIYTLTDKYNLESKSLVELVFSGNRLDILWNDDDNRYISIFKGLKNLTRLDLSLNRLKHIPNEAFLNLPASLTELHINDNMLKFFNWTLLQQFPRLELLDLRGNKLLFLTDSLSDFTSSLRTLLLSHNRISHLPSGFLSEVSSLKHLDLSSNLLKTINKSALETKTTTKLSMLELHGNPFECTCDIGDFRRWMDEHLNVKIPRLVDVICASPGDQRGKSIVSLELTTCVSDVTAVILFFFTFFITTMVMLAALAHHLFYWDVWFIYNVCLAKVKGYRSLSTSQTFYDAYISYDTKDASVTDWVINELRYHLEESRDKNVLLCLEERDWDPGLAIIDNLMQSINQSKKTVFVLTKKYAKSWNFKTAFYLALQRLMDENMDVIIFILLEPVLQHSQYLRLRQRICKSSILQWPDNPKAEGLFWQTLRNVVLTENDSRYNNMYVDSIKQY
Summary of the method: (§1)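 Agonists used: gardiquimod 7.5 μM (TLR7), R848 15.9 μM (TLR8), ODN2006 5 nM (TLR9), added after 30 min room-temperature compound pre-treatment (0.05 nM–50 μM) of receptor-overexpressing HEK-Blue cells. SEAP reporter (NF-κB/AP-1 driven) read after 22 h at 37 °C; inhibition scaled between agonist+DMSO and reference-inhibitor wells.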

human TLR9 = molecular target: T2, human TLR9 (Homo sapiens, UniProt Q9NR96); assay: TLR9 inhibition reporter assay (HEK-Blue cells, SEAP reporter, ODN2006 stimulation); conditions: HEK-Blue cells overexpressing human TLR9, SEAP reporter, ODN2006 5 nM
T2 construct: host or cells: HEK-Blue cells
T2 sequence (Q9NR96 26-1032): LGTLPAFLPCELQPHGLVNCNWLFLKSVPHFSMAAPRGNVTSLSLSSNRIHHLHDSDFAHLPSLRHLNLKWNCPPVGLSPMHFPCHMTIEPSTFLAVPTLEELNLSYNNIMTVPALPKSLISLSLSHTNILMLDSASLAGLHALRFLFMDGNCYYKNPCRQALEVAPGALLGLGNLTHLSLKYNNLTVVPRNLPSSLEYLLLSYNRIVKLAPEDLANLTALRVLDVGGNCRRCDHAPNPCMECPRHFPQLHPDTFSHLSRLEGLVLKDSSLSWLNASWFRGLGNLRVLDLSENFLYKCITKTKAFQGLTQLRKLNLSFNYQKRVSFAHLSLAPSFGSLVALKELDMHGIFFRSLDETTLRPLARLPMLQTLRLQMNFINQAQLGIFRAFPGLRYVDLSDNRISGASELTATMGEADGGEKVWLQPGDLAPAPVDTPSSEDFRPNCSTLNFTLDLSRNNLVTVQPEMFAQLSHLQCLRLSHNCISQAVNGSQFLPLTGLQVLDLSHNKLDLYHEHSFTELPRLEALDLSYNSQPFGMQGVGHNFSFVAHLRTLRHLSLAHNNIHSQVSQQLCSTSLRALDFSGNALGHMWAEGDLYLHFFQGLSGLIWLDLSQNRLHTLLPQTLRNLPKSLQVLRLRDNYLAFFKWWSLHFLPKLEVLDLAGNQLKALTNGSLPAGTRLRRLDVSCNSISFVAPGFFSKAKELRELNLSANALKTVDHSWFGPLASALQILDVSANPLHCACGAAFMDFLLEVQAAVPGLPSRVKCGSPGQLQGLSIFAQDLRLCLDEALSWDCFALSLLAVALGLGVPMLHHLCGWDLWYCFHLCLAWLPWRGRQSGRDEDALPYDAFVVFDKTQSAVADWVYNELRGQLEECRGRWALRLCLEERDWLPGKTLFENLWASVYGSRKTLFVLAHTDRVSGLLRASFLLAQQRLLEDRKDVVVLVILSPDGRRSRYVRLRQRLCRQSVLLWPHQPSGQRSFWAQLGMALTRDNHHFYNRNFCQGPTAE
Summary of the method: as §1

human TLR7 = molecular target: T3, human TLR7 (Homo sapiens, UniProt Q9NYK1); assay: TLR7 inhibition reporter assay (HEK-Blue cells, SEAP reporter, gardiquimod stimulation); conditions: HEK-Blue cells overexpressing human TLR7, SEAP reporter, gardiquimod 7.5 μM; read-out: TLR7 IC50
T3 construct: host or cells: HEK-Blue cells
T3 sequence (Q9NYK1 27-1049): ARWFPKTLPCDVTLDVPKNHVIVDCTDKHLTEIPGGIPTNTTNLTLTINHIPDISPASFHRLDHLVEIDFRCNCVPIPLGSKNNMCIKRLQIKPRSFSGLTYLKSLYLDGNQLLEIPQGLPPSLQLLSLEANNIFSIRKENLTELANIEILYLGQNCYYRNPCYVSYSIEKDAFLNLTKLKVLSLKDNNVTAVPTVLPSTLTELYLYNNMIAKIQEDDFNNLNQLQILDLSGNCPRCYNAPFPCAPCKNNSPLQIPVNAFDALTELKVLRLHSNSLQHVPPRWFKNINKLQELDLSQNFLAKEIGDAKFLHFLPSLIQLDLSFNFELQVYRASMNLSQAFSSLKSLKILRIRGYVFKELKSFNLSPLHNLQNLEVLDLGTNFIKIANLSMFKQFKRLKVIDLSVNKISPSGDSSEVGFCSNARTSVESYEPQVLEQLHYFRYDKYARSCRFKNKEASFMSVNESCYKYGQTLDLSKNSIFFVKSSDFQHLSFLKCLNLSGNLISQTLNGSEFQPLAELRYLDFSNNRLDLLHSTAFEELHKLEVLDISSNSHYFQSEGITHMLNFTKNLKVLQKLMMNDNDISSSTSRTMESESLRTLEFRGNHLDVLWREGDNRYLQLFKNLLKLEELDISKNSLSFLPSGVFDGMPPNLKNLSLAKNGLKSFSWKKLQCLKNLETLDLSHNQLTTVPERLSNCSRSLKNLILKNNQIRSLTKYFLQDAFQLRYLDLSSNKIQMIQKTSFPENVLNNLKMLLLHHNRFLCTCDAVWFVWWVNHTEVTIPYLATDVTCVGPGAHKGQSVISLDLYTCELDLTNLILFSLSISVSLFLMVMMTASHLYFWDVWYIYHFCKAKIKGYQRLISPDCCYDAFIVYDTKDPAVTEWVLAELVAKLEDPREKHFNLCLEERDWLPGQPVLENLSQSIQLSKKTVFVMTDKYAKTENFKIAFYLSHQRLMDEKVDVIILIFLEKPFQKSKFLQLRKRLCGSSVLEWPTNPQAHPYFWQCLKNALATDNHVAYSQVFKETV
Summary of the method: as §1

Compound	pIC50 (human TLR8)	pIC50 (human TLR9)	pIC50 (human TLR7)
Cc1c(-c2[nH]c3sc(C(=O)NCCN4CCCC4)nc3c2C(C)C)cn2ncnc2c1C [Example 370, 5-(7,8-dimethyl-[1,2,4]triazolo[1,5-a]pyridin-6-yl)-6-isopropyl-N-(2-(pyrrolidin-1-yl)ethyl)-4H-pyrrolo[3,2-d]thiazole-2-carboxamide]	8.86	5.19	7.91
Cc1c(-c2[nH]c3sc(C(=O)NCCN(C)C)nc3c2C(C)C)cn2ncnc2c1C [Example 372, 5-(7,8-dimethyl-[1,2,4]triazolo[1,5-a]pyridin-6-yl)-N-(2-(dimethylamino)ethyl)-6-isopropyl-4H-pyrrolo[3,2-d]thiazole-2-carboxamide]	8.60	5.05	7.97
Cc1c(-c2[nH]c3sc(C(=O)N4CCS(=O)(=O)CC4)nc3c2C(C)C)cn2ncnc2c1C [Example 373, (5-(7,8-dimethyl-[1,2,4]triazolo[1,5-a]pyridin-6-yl)-6-isopropyl-4H-pyrrolo[3,2-d]thiazol-2-yl)(1,1-dioxidothiomorpholino)methanone]	7.46	4.38	7.09
Cc1c(-c2[nH]c3sc(C(=O)NCC(C)(C)N4CCOCC4)nc3c2C(C)C)cn2ncnc2c1C [Example 374, 5-(7,8-dimethyl-[1,2,4]triazolo[1,5-a]pyridin-6-yl)-6-isopropyl-N-(2-methyl-2-morpholinopropyl)-4H-pyrrolo[3,2-d]thiazole-2-carboxamide]	8.03	4.38	7.93
CC(=O)N1CCN(C(=O)c2nc3c(C(C)C)c(-c4cn5ncnc5c(C)c4C)[nH]c3s2)CC1 [Example 375, 1-(4-(5-(7,8-dimethyl-[1,2,4]triazolo[1,5-a]pyridin-6-yl)-6-isopropyl-4H-pyrrolo[3,2-d]thiazole-2-carbonyl)piperazin-1-yl)ethan-1-one]	8.08	4.45	7.70
Cc1c(-c2[nH]c3sc(C(=O)N4CCC(N(C)C)CC4)nc3c2C(C)C)cn2ncnc2c1C [Example 376, (5-(7,8-dimethyl-[1,2,4]triazolo[1,5-a]pyridin-6-yl)-6-isopropyl-4H-pyrrolo[3,2-d]thiazol-2-yl)(4-(dimethylamino)piperidin-1-yl)methanone]	8.55	5.20	8.34
Cc1c(-c2[nH]c3sc(C(=O)N4CC(F)C4)nc3c2C(C)C)cn2ncnc2c1C [Example 379, (5-(7,8-dimethyl-[1,2,4]triazolo[1,5-a]pyridin-6-yl)-6-isopropyl-4H-pyrrolo[3,2-d]thiazol-2-yl) (3-fluoroazetidin-1-yl)methanone]	7.64	4.55	7.25
Cc1c(-c2[nH]c3sc(C(=O)N4CCN(C(C)C)CC4)nc3c2C(C)C)cn2ncnc2c1C [Example 380, (5-(7,8-dimethyl-[1,2,4]triazolo[1,5-a]pyridin-6-yl)-6-isopropyl-4H-pyrrolo[3,2-d]thiazol-2-yl)(4-isopropylpiperazin-1-yl)methanone]	8.29	5.19	7.94
Cc1c(-c2[nH]c3sc(C(=O)NCCC4CCN(C)CC4)nc3c2C(C)C)cn2ncnc2c1C [Example 381, 5-(7,8-dimethyl-[1,2,4]triazolo[1,5-a]pyridin-6-yl)-6-isopropyl-N-(2-(1-methylpiperidin-4-yl)ethyl)-4H-pyrrolo[3,2-d]thiazole-2-carboxamide]	8.04	5.23	7.95
Cc1c(-c2[nH]c3sc(C(=O)N(C)CCN(C)C)nc3c2C(C)C)cn2ncnc2c1C [Example 382, 5-(7,8-dimethyl-[1,2,4]triazolo[1,5-a]pyridin-6-yl)-N-(2-(dimethylamino)ethyl)-6-isopropyl-N-methyl-4H-pyrrolo[3,2-d]thiazole-2-carboxamide]	8.63	5.01	8.63
Cc1c(-c2[nH]c3sc(C(=O)N4CC(N(C)C)C4)nc3c2C(C)C)cn2ncnc2c1C [Example 383, (5-(7,8-dimethyl-[1,2,4]triazolo[1,5-a]pyridin-6-yl)-6-isopropyl-4H-pyrrolo[3,2-d]thiazol-2-yl) (3-(dimethylamino)azetidin-1-yl)methanone]	8.45	4.33	7.76
Cc1c(-c2[nH]c3sc(C(=O)NCC4CNCCO4)nc3c2C(C)C)cn2ncnc2c1C (stereo not drawn) [Example 386, 5-(7,8-dimethyl-[1,2,4]triazolo[1,5-a]pyridin-6-yl)-6-isopropyl-N-(morpholin-2-ylmethyl)-4H-pyrrolo[3,2-d]thiazole-2-carboxamide]	8.45	5.02	7.99
COc1cc(-c2[nH]c3sc(C(=O)NCCN4CCCC4)nc3c2C(C)C)cn2ncnc12 [Example 387, 6-isopropyl-5-(8-methoxy-[1,2,4]triazolo[1,5-a]pyridin-6-yl)-N-(2-(pyrrolidin-1-yl)ethyl)-4H-pyrrolo[3,2-d]thiazole-2-carboxamide]	7.36	4.94	7.60
